# Patent publication US6399580B1, “Methods and compositions for stimulating tissue growth and epithelial moisturization” (The Regents of the University of California, priority 1994, dated 2002)
# Experiments:
# hairless mouse epidermis = experiment: Epidermal / stratum corneum lipid content (HPTLC/TLC); format: in vivo
# Experimental: Hairless mice were treated with BrCBE for 5 days as described in Example 10. The following high performance thin layer chromatograph (HPTLC) system was developed for optimal separation of ceramides and glucosylceramides for quantitation by spectrodensitometry. Extracts were applied to precleaned 10 ×20 cm HPTLC plates, 0.5 cm from lower edge of the plate and fractionated sequentially in a horizontal developmental chamber (Camag, Muttenz, Switzerland) in the following solvent systems: 1) chloroform:methanol:acetic acid (190:9:1), v/v/v) to the top, twice; 2) chloroform:methanol:acetone (76:20:4, by volume) to 30 mm. Between each development, the plate was dried for 5 minutes on a hot plate (40° C.), cooled for 2 minutes, and equilibrated in the tank with the solvents for 3 minutes. After final development, the plates were dried, cooled, dipped in charring solution (1.5% cupric sulfate in acetic acid:sulfuric acid:orthophosphoric acid:water (50:10:10:30, by volume) for 15 seconds, dried (40° .C) for 5 minutes, and then charred at 180° C. for 15 minutes. Plates were scanned with a variable wavelength scanning densitometer (Camag, Muttenz, Switzerland). Lipid amounts for each fraction were estimated using ceramides 3 and 4, and galactosylceramides 1 and 2 as reference standards (Sigma Chemical Co., St. Louis, Mo.).
# The epidermal glucosylceramide content was determined in mice treated with the topical β-glucocerebrosidase inhibitors. Mice were treated with CBE for one day as described in FIG. 22. The mice were sacrificed and whole skin was excised. Subcutaneous fascia and fat were scraped off, and the samples were placed dermis side down onto […] EDTA in PBS-CMF (pH 7.4) and incubated at 37° C. for 40 min. Skin was blotted dry with a tissue and the epidermis was removed by scraping with a surgical blade. The epidermis was minced, placed into microcentrifuge vials, immediately snap frozen and stored in liquid N2 until extracted.
# For extraction the tissue was soaked in 7.6 ml Bligh/Dyer extraction media (2 ml chloroform, 4 ml Methanol, 1.6 ml H2O) overnight at room temperature. The following day the tissue was shaken for 20 min. and centrifuged for 10 min. the solvent was removed and the pellet was combined with 7.6 ml Bligh/Dyer media and again shaken and centrifuged. The solvents were combined with solvent from the soaks and filtered through pre-solvent-washed Whatman 43 filter paper, 2 ml chloroform and 2 ml H2O was added to each 7.6 ml quantity of the filtrate and shaken for 10 min. The samples were then centrifuged and the upper phase discarded. The lower phase was washed with 4 ml chloroform, 4 ml MetOH, and 3.6 ml H2O (shaken for 10 min and centrifuged). The upper phase was discarded. The lower phase was dried under N2 in a 47° C. water bath. The lipid was resuspended in chloroform and weighed on the Cahn balance.
# TLC was performed using 15-20 μg samples and quantitated against standard glycosylceramide and 40 μg sample for sphingolipids (Holleran, W. M. et al. (1993) J. Clin. Invest. 91:1656-1664).
# Both glucosylceramide and ceramide content was then determined in lower (stratum basale) and upper (stratum spinosum, stratum granulosum and stratum corneum) epidermis (FIG. 23). Following 24 hours of CBE treatment samples were excised following treatment (as in Example 16).
# murine epidermis [1] = experiment: Total epidermal DNA content after topical CBE; format: in vivo, mouse
# Experimental: In addition to measuring DNA synthesis by [^3H]-thymidine incorporation, total epidermal DNA content was determined after applications of CBE. 100 μl of epidermal homogenate was obtained from mice and stored at −70° C. Samples were diluted with Hoechst buffer (pH 7.4) in duplicate. Each sample was brought up to 1 ml with Hoechst buffer. 1 ml of bisbenzimadazole (diluted 1:1000 with dist H2O) was added and samples were vortexed. Standards were prepared using 134 μg/ml calf thymus DNA diluted 1:10 with Hoechst buffer. Final concentration of DNA ranged from 0.067 to 0.335 μg. All samples and standards were covered for 2 hours and absorbance at […] was determined (LaBarca, C. and Paigan (1980) Anal. Biochem. 102:344-352).
# hairless mouse skin = experiment: Appearance and texture of treated skin; format: in vivo; conditions: application of CBE
# Experimental: To determine whether inhibitors of β-glucocerebrosidase would cause more profound effects than applications of exogenous GlcCER alone (examples 5&6), we next applied the specific, suicide inhibitor, bromoconduritol-B-epoxide (BrCBE) to intact hairless mouse skin (Simonsen Laboratories, Gilroy, Calif.) (Holleran, W. M. et al., J. Clin. Invest. (1993) 91:1656-1664). BrCBE (325 nmol in 20 μl propylene glycol:ethanol, 7:3 vols) was applied once daily for 0-14 days. (Holleran, W. M. et al. (1994) J. Clin. Inv. 93:1756-1764)
# murine epidermis [2] = experiment: Epidermal DNA synthesis, [3H]-thymidine incorporation in vivo; parameters: species or system mouse; conditions: CBE 750 nmol/5cm^2/day, five days; FIG. 17
# [3] = one day of CBE treatment, FIG. 23
smiles,measurement,setting,value
"O[C@H]1[C@H](O)[C@@H](O)[C@@H]2O[C@@H]2[C@@H]1O (racemic) [CBE, conduritol-B-epoxide]","level of glucosylceramide, higher in treated samples","hairless mouse epidermis; 20 μl of 250 nmol/μl CBE tid x5d, 250 mm^2 skin sample",34-147%
same,"level of glucosylceramide, higher in treated samples","hairless mouse epidermis; 40 μl of 250 nmol/μl CBE tid x3d, 500 mm^2 skin sample",57-152%
same,epidermal glucosylceramide content,"hairless mouse epidermis; one day of CBE application, FIG. 22",invariably increased
same,ceramide levels of upper and lower epidermis,hairless mouse epidermis; [3],not significantly altered
same,glucosylceramide content of upper and lower epidermis,hairless mouse epidermis; [3],significant increase
same,"DNA concentration, higher than untreated samples","murine epidermis [1]; 24 hours following CBE treatment, FIG. 20 & 21",6-81%
same,"DNA concentration, higher than untreated samples","murine epidermis [1]; 3 days of CBE-treatment, FIG. 19",45-113%
same,"DNA concentration, higher than untreated skin samples","murine epidermis [1]; 5 days of CBE-treatment, FIG. 18",46-331%
same,"thickness, firmness and pliability of murine skin",hairless mouse skin,increased
same,"proliferative index, CBE-treated over control epidermis ([3H]-thymidine incorporation)",murine epidermis [2],approximately 1.6
